Assay results reported in PMC5666424, “Marine-Derived 2-Aminoimidazolone Alkaloids. Leucettamine B-Related Polyandrocarpamines Inhibit Mammalian and Protozoan DYRK & CLK Kinases” (Marine Drugs, 2017).

Tests used:
Experiment in all cases: KinomeScan
Type in all cases: binding
Settings in all cases: 1 μM
TAOK1 = biological target: T1, TAOK1 (Homo sapiens, UniProt Q7L7X3)
T1 construct: purchased DiscoverX (KINOMEscan)

MAK = biological target: T2, MAK (Homo sapiens, UniProt P20794)
T2 construct: purchased DiscoverX (KINOMEscan)

FES = biological target: T3, FES (Homo sapiens, UniProt P07332)
T3 construct: purchased DiscoverX (KINOMEscan)

FLT1 = biological target: T4, FLT1 (Homo sapiens, UniProt P17948)
T4 construct: purchased DiscoverX (KINOMEscan)

FLT3(N841I) = biological target: T5, FLT3(N841I) (Homo sapiens, UniProt P36888, N841I)
T5 construct: purchased DiscoverX (KINOMEscan)

CSNK1G2 = biological target: T6, CSNK1G2 (Homo sapiens, UniProt P78368)
T6 construct: purchased DiscoverX (KINOMEscan)

KIT(D816V) = biological target: T7, KIT(D816V) (Homo sapiens, UniProt P10721, D816V)
T7 construct: purchased DiscoverX (KINOMEscan)

EPHB6 = biological target: T8, EPHB6 (Homo sapiens, UniProt O15197)
T8 construct: purchased DiscoverX (KINOMEscan)

DYRK2 = biological target: T9, DYRK2 (Homo sapiens, UniProt Q92630)
T9 sequence (Q92630 1-601): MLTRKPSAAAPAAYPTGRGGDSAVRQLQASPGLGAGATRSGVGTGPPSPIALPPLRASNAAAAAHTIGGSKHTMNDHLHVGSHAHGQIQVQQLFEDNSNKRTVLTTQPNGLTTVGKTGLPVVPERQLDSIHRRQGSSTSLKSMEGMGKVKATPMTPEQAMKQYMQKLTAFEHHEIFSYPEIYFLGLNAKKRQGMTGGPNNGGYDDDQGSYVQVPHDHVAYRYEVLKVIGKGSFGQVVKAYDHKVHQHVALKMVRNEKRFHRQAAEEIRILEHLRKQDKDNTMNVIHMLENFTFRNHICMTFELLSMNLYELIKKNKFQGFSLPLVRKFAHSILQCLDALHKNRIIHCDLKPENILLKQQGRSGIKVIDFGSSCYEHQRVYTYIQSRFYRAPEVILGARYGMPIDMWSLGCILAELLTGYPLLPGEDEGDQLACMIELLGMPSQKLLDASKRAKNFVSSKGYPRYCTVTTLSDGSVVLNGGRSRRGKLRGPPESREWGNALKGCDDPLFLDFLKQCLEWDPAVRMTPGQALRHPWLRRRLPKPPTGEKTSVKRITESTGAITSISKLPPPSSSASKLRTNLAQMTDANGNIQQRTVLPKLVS

STK16 = biological target: T10, STK16 (Homo sapiens, UniProt O75716)
T10 construct: purchased DiscoverX (KINOMEscan)

INSRR = biological target: T11, INSRR (Homo sapiens, UniProt P14616)
T11 construct: purchased DiscoverX (KINOMEscan)

ARK5 = biological target: T12, ARK5 (Homo sapiens, UniProt O60285)
T12 construct: purchased DiscoverX (KINOMEscan)

MAP4K4 = biological target: T13, MAP4K4 (Homo sapiens, UniProt O95819)
T13 construct: purchased DiscoverX (KINOMEscan)

CAMK2A = biological target: T14, CAMK2A (Homo sapiens, UniProt Q9UQM7)
T14 construct: purchased DiscoverX (KINOMEscan)

KIT(V559D,T670I) = biological target: T15, KIT(V559D,T670I) (Homo sapiens, UniProt P10721, T670I/V559D)
T15 construct: purchased DiscoverX (KINOMEscan)

MRCKA = biological target: T16, MRCKA (Homo sapiens, UniProt Q5VT25)
T16 construct: purchased DiscoverX (KINOMEscan)

TLK1 = biological target: T17, TLK1 (Homo sapiens, UniProt Q9UKI8)
T17 construct: purchased DiscoverX (KINOMEscan)

KIT(V559D,V654A) = biological target: T18, KIT(V559D,V654A) (Homo sapiens, UniProt P10721, V559D/V654A)
T18 construct: purchased DiscoverX (KINOMEscan)

LOK = biological target: T19, LOK (Homo sapiens, UniProt O94804)
T19 construct: purchased DiscoverX (KINOMEscan)

CAMK2D = biological target: T20, CAMK2D (Homo sapiens, UniProt Q13557)
T20 construct: purchased DiscoverX (KINOMEscan)

EGFR(L858R,T790M) = biological target: T21, EGFR(L858R,T790M) (Homo sapiens, UniProt P00533, L858R/T790M)
T21 construct: purchased DiscoverX (KINOMEscan)

[1] = biological target: T22, TYK2(JH1domain-catalytic) (Homo sapiens, UniProt P29597)
T22 construct: TYK2(JH1domain-catalytic); purchased DiscoverX (KINOMEscan)

TGFBR1 = biological target: T23, TGFBR1 (Homo sapiens, UniProt P36897)
T23 construct: purchased DiscoverX (KINOMEscan)

DDR1 = biological target: T24, DDR1 (Homo sapiens, UniProt Q08345)
T24 construct: purchased DiscoverX (KINOMEscan)

MLK1 = biological target: T25, MLK1 (Homo sapiens, UniProt P80192)
T25 construct: purchased DiscoverX (KINOMEscan)

AURKA = biological target: T26, AURKA (Homo sapiens, UniProt O14965)
T26 construct: purchased DiscoverX (KINOMEscan)

TESK1 = biological target: T27, TESK1 (Homo sapiens, UniProt Q15569)
T27 construct: purchased DiscoverX (KINOMEscan)

EGFR(T790M) = biological target: T28, EGFR(T790M) (Homo sapiens, UniProt P00533, T790M)
T28 construct: purchased DiscoverX (KINOMEscan)

T22 sequence (P29597 871-1187 limits assumed): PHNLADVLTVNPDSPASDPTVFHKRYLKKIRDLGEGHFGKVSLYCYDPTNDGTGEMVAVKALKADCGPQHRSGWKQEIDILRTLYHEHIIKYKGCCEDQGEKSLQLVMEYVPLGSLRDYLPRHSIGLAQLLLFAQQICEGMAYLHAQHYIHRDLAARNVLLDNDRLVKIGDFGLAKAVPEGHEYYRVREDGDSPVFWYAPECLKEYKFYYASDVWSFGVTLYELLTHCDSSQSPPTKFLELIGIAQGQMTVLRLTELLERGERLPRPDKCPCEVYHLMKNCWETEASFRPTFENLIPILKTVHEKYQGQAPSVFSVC
T23 sequence (P36897 34-503): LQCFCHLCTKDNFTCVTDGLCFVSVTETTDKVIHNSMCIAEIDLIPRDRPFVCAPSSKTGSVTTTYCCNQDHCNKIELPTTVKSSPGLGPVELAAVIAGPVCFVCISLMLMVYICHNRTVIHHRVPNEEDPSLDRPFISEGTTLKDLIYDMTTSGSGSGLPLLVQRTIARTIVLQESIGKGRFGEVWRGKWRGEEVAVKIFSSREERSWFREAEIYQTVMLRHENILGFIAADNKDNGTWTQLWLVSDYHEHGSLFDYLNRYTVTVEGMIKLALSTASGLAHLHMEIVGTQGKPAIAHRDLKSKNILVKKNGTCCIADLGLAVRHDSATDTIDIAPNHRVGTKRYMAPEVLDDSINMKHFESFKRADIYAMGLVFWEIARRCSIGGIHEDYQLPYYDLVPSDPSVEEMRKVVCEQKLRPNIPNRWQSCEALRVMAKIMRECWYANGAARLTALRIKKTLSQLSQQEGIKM
T12 sequence (O60285 whole entry): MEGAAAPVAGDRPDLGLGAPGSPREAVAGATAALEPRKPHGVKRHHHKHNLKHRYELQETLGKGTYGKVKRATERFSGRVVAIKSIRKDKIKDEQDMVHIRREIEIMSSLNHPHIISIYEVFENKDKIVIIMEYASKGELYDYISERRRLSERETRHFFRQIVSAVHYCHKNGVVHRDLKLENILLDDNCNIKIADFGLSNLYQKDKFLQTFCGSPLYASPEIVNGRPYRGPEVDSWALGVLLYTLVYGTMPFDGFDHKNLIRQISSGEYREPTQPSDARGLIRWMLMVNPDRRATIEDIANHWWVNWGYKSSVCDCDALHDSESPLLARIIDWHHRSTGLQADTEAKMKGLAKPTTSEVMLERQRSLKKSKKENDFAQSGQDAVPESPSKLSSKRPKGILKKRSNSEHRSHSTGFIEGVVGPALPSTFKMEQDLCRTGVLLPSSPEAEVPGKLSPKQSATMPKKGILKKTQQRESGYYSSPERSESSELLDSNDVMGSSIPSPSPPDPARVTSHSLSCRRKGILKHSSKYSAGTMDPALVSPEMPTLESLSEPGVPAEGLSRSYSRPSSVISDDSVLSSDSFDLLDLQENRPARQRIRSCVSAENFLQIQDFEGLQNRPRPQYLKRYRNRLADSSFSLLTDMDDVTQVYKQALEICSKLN
T7 sequence (P10721 26-976 D816V): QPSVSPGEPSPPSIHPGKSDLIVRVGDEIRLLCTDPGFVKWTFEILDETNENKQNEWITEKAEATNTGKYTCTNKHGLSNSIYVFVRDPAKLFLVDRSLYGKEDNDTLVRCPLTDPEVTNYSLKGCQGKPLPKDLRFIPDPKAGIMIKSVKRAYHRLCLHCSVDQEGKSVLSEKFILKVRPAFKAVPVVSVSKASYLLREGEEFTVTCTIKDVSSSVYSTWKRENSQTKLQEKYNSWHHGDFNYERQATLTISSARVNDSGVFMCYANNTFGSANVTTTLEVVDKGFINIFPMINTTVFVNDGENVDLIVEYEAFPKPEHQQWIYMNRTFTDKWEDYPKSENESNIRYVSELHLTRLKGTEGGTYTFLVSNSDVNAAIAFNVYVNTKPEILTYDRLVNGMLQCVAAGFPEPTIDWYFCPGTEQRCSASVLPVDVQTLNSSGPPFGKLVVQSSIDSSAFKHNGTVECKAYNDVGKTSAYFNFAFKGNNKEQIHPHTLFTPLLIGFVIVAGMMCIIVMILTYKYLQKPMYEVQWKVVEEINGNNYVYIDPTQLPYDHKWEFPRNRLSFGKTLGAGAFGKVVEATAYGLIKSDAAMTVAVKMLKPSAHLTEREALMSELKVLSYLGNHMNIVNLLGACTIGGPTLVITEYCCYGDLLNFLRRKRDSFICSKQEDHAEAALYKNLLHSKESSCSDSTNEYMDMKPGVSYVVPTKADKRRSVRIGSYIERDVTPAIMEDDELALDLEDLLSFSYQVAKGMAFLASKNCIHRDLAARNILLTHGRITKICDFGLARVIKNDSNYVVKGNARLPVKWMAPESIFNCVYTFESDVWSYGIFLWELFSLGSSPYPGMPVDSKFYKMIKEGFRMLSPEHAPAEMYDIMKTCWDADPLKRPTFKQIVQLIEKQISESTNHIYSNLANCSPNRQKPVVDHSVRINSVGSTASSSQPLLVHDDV
T8 sequence (O15197 32-1021): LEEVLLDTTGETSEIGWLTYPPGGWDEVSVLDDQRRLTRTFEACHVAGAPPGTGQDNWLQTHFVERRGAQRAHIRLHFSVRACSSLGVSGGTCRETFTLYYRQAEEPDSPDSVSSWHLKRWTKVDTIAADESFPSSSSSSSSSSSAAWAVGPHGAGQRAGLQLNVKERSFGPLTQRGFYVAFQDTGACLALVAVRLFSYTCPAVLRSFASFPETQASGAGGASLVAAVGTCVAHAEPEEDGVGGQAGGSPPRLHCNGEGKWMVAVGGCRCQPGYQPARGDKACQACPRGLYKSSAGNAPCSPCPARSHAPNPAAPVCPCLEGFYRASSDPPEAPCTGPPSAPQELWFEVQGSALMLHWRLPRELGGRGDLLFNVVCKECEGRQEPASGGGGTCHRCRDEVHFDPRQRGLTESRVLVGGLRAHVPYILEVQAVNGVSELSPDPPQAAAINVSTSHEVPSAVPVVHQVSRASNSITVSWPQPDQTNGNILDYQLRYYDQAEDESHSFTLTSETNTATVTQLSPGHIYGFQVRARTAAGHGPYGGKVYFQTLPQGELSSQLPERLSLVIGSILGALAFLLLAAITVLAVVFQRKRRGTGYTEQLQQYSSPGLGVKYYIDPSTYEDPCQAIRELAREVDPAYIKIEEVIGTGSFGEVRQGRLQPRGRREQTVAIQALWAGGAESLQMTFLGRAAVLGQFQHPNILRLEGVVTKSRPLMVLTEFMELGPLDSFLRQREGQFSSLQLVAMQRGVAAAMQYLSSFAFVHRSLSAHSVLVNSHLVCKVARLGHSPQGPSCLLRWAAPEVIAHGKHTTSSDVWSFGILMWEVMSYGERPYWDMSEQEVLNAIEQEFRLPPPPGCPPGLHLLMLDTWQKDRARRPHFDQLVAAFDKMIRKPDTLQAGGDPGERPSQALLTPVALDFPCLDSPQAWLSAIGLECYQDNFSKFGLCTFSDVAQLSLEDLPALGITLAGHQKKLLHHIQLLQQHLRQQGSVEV
T10 sequence (O75716 whole entry): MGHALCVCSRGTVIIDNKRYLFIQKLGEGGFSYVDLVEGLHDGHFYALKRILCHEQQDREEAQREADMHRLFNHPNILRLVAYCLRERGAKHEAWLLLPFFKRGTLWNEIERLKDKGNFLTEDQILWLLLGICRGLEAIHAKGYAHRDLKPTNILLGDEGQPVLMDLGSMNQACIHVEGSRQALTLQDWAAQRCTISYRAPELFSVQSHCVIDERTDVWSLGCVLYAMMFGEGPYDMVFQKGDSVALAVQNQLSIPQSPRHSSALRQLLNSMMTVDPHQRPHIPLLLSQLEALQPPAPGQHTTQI
T18 sequence (P10721 26-976 V559D/V654A): as the sequence (P10721 26-976 D816V) above, with V534D, V629A, V791D counted along it
T14 sequence (Q9UQM7 whole entry): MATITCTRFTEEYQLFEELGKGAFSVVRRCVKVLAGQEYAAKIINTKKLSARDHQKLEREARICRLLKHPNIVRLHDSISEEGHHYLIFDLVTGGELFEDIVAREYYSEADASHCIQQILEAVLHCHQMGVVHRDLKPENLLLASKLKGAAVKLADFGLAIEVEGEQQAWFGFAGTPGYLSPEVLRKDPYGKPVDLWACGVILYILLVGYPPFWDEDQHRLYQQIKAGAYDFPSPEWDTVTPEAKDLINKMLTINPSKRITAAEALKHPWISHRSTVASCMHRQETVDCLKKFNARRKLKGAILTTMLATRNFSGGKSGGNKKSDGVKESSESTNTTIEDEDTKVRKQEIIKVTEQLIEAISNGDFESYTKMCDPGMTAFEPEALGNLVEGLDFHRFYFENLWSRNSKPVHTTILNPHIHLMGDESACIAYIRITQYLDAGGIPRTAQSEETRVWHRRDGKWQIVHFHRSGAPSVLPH
T3 sequence (P07332 whole entry): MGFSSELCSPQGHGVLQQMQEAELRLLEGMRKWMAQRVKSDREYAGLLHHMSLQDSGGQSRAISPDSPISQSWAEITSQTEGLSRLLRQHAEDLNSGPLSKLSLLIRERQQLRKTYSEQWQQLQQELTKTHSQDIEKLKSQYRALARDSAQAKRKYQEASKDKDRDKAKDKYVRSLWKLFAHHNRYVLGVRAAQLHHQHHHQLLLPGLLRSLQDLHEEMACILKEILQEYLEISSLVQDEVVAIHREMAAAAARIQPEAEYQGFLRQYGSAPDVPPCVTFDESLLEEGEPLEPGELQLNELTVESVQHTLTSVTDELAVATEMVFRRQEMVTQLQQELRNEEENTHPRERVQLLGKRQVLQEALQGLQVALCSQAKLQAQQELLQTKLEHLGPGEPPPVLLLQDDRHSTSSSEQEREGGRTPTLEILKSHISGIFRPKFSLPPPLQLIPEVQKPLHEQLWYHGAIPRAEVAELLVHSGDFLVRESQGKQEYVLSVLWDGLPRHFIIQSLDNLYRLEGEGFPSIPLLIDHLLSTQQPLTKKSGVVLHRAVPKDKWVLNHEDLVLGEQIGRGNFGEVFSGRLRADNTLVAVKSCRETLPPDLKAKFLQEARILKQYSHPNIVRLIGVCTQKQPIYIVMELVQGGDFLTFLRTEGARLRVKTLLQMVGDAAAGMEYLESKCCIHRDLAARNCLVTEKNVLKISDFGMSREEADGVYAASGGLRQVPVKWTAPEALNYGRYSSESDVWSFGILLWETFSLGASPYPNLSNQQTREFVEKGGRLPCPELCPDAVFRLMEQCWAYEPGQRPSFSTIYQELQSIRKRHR

Which Score (TAOK1) does the source give for `COc1cc(/C=C2\N=C(N)NC2=O)ccc1O` [Polyandrocarpamine A] here?
The Score was 76.

What about the Score (MAK) of the same molecule?
The Score was 91.

What about the Score (FES) of the same molecule?
The Score was 96.

And the Score (FLT1)?
The Score was 100.

And the Score (FLT3(N841I))?
Its Score is 100.

And the Score (CSNK1G2)?
Its Score is 100.

What about the Score (KIT(D816V)) of the same molecule?
Its Score is 100.

And the Score (EPHB6)?
Its Score is 97.

What about the Score (DYRK2) of the same molecule?
Its Score is 24.

And the Score (STK16)?
The Score was 100.

What about the Score (INSRR) of the same molecule?
The Score was 81.

What about the Score (ARK5) of the same molecule?
Its Score is 71.

And the Score (MAP4K4)?
The Score was 98.

What about the Score (CAMK2A) of the same molecule?
Its Score is 98.

What about the Score (KIT(V559D,T670I)) of the same molecule?
Its Score is 85.

And the Score (MRCKA)?
Its Score is 100.

And the Score (TLK1)?
Its Score is 94.

What about the Score (KIT(V559D,V654A)) of the same molecule?
The Score was 100.

What about the Score (LOK) of the same molecule?
Its Score is 100.

And the Score (CAMK2D)?
Its Score is 100.

And the Score (EGFR(L858R,T790M))?
Its Score is 100.

What about the Score [1] of the same molecule?
Its Score is 100.

What about the Score (TGFBR1) of the same molecule?
The Score was 100.

What about the Score (DDR1) of the same molecule?
The Score was 100.

What about the Score (MLK1) of the same molecule?
Its Score is 100.

What about the Score (AURKA) of the same molecule?
The Score was 100.

And the Score (TESK1)?
The Score was 100.

And the Score (EGFR(T790M))?
The Score was 93.
